This note sets out measurements from the NIST ThermoML archive (doi:10.1016/j.jct.2018.10.026).

± gives the expanded uncertainty stated by the source.

For this data set the following is noted: 101.33 kPa, Liquid; for mass density: Vibrating tube method; for viscosity: Concentric cylinders viscometry.

`C[N+](C)(C)CCO.[O-]c1cccc2cccnc12` [choline 8-quinolinolate]: the mass density (usually the mass of a sample divided by its volume) is 1162.71 ± 6.5 kg/m3 (293.15 K); 1159.75 ± 6.5 kg/m3 (298.15 K); 1156.73 ± 6.4 kg/m3 (303.15 K); 1153.91 ± 6.4 kg/m3 (308.15 K); 1150.97 ± 6.4 kg/m3 (313.15 K); 1147.91 ± 6.4 kg/m3 (318.15 K). Moreover, the mass density (323.15 K) is recorded as 1144.78 ± 6.4 kg/m3. Besides, the viscosity (as a rule, the internal friction of a fluid under shear) is recorded as 4870960 ± 1.2e+06 mPa·s (303.15 K); 2363490 ± 570000 mPa·s (308.15 K); 1331720 ± 310000 mPa·s (313.15 K); 755840 ± 180000 mPa·s (318.15 K); 338330 ± 77000 mPa·s (323.15 K).

For the compound `C[C@H](O)C(=O)[O-].C[N+](C)(C)CCO`, the viscosity (293.15 K) is recorded as 5513 ± 1200 mPa·s; the viscosity (298.15 K) was 3929 ± 820 mPa·s; the viscosity (303.15 K) amounted to 2903 ± 600 mPa·s; the viscosity (308.15 K) came out at 2207 ± 460 mPa·s; the viscosity (313.15 K) came out at 1728 ± 360 mPa·s; the viscosity (318.15 K) is 1368 ± 280 mPa·s. The viscosity (323.15 K) is 1110 ± 230 mPa·s. Also, the mass density reads like this: (293.15 K) 1137.33 ± 11 kg/m3; (298.15 K) 1133.94 ± 11 kg/m3; (303.15 K) 1130.52 ± 11 kg/m3; (308.15 K) 1127.05 ± 11 kg/m3; (313.15 K) 1123.55 ± 11 kg/m3; (318.15 K) 1120.11 ± 11 kg/m3. Moreover, for the setting “323.15 K”, the mass density was found to be 1116.7 ± 11 kg/m3.
